Assay results from patent publication US20240130988A1, “Use of stilbene compounds in the preparation of anti-tumor drugs” (Guangzhou AnHao Pharmaceutical Technology CO., LTD., priority 2022, published 2024).

What was measured:
[1] = system: human lung cancer 95D and human liver cancer Bel7404; assay: Tumor necrosis in vivo, HE staining; parameters: species or system nude mice; conditions: 400 mg/kg
Procedure: Well growing solid tumors (human lung cancer […]) and human liver cancer Bel7404) were cut into uniform small pieces of approximate 2-3 mm under sterile conditions, and subcutaneously inoculated into the right armpit of each nude mouse using a cannula. 14 days after inoculation, each mouse was treated with compound 6 by oral administration at a dosage of 400 mg/kg (in a dosage by volume of 0.5 mL/20 g body weight), and compound 6 was prepared as a suitable solution with sterile normal saline. At different time points (4 h, 24 h) after administration, the nude mice were killed, and the tumor tissue was dissected and fixed with 10% formalin. The pathological sections were made, followed by HE staining and taking photos, to observe the internal necrosis and cell proliferation within the tumors.

[2] = system: human lung cancer 95D and human liver cancer Bel7404; assay: In vivo vascular necrosis of tumors, PCNA immunohistochemistry; parameters: species or system nude mice; conditions: 400 mg/kg
[3] = system: B16 mouse melanoma; assay: Lung metastasis model of B16 mouse melanoma; assay type: in vivo, C57BL/6 mice
Procedure: Under sterile conditions, […] mouse melanoma cells in logarithmic growth period were cultured, and then prepared as 2.8×10^5/mL of cell suspension, which was inoculated into the tail vein of C57BL/6 mice at 0.2 mL/mouse. Compound 6 was administered to the mice on the next day. Three weeks later, each animal was sacrificed, and the lungs of mice in each group were dissected. The number of metastatic colonies in the lungs of mice was detected and counted, and the average number of tumor colonies in each group was used to calculate the tumor inhibitory rate according to the formula: Tumor inhibitory rate %=[(The average number of colonies in the control group−the average number of colonies in the treatment group)/The average number of colonies in the control group]×100%, The results are shown in Table 16.

[4] = system: human gastric cancer SGC7901; assay: Compound 6 combined with paclitaxel, human gastric cancer SGC7901 xenograft in nude mice; assay type: in vivo; conditions: paclitaxel 10 mg/kg iv, compound 6 200 mg/kg ip, combination 10 + 200
Excerpt: Experimental method: The model of human gastric cancer SGC7901 transplant tumor in nude mice was established by subcutaneously inoculating human gastric cancer SGC7901 cell lines into the armpits of nude mice. Cells were inoculated in an amount of 1×10^6, and after formation of the transplanted tumors by inoculation, the cells were passed 3 generations in nude mice before use. The vigorous growth of tumor tissue was cut into approximate 1.5 mm^3, and homogenized under sterile conditions, to prepare 1×10^7/mL of cell suspension. 0.1 mL of cell suspension was subcutaneously inoculated into the right armpit of nude mice. For transplanted tumors in nude mice, the diameter was measured with vernier caliper. After the tumor grew to 100 mm^3, the animals were randomly divided into groups, with 6 mice in each group. […] The measurement frequency of tumor diameter was once every three days. The dosage by volume was 0.1 mL/20 g. The mice in the negative control group were given an equal amount of physiological saline by intravenous injection. The effect of combined medicaments was evaluated based on the Q value calculated by Jin's formula: […]
(§1) Ea+b represents the tumor inhibitory rate of the combined medicaments, while Ea and Eb represent the tumor inhibitory rates of medicament A and medicament B, respectively.

[5] = system: human lung cancer A549; assay: Compound 8 combined with carboplatin, human lung cancer A549 xenograft in nude mice; assay type: in vivo; conditions: ip: carboplatin 10 mg/kg, compound 8 200 mg/kg, combination 10 + 200
Excerpt: Experimental method: The model of human lung cancer A549 transplant tumor in nude mice was established by subcutaneously inoculating human lung cancer A549 cell lines into the armpits of nude mice. Cells were inoculated in an amount of 1×10^6, and after formation of the transplanted tumors by inoculation, the cells were passed 3 generations in nude mice before use. The vigorous growth of tumor tissue was cut into approximate 1.5 mm^3, and homogenized under sterile conditions, to prepare 1×10^7/mL of cell suspension. 0.1 mL of cell suspension was subcutaneously inoculated into the right armpit of nude mice. For transplanted tumors in nude mice, the diameter was measured with vernier caliper. After the tumor grew to 100 mm^3, the animals were randomly divided into groups, with 6 mice in each group. Using the method of measuring tumor diameter, the anti-tumor effect of test compound was dynamically Observed. Compound 8 was administered at 200 mg/kg by intraperitoneal injection, once every other day, for three weeks; carboplatin was administered at 10 mg/kg by intraperitoneal injection, once every other day, for three weeks. The measurement frequency of tumor diameter was once every three days. The dosage by volume was 0.1 mL/20 g. The mice in the negative control group were given an equal amount of physiological saline by intravenous injection. The effect of combined medicaments was evaluated based on the Q value calculated by Jin's formula: […]
Ea+b represents the tumor inhibitory rate of the combined medicaments, while Ea and Eb represent the tumor inhibitory rates of medicament A and medicament B, respectively. For example, the Q value of 0.85-1.15 means additive action (+), while the Q value of >1.15 means synergistic action (++).

[6] = system: Lewis non-small cell lung cancer; assay: Compound 11 combined with PD-L1, Lewis non-small cell lung cancer model in mice; assay type: in vivo, C57BL/6 mice; conditions: ip: PD-L1 10 mg/kg, compound 11 200 mg/kg, combination 10 + 200
Excerpt: Experimental method: The model of transplant tumor in C57BL/6 mice was established by subcutaneously inoculating Lewis non-small cell lung cancer cell lines into the armpits of C57BL/6 mice. Cells were inoculated in an amount of 1×10^6, and after formation of the transplanted tumors by inoculation, the cells were passed 3 generations in C57BL/6 mice before use. The vigorous growth of tumor tissue was cut into approximate 1.5 mm^3, and homogenized under sterile conditions, to prepare 1×10^7/mL of cell suspension. 0.1 mL of cell suspension was subcutaneously inoculated into the right armpit of C57BL/6 mice. For transplanted tumors in C57BL/6 mice, the diameter was measured with vernier caliper. After the tumor grew to 100 mm^3, the animals were randomly divided into groups, with 6 mice in each group. […] The measurement frequency of tumor diameter was once every three days. The dosage by volume was 0.1 mL/20 g. The mice in the negative control group were given an equal amount of physiological saline by intravenous injection.
The effect of combined medicaments was evaluated based on the Q value calculated by Jin's formula: […]
as §1

## COc1ccc(/C=C(/C(=O)O)c2cc(OC)c(OC)c(OC)c2)cc1O [Compound 6, (E)-3-(3-hydroxy-4-methoxyphenyl)-2-(3,4,5-trimethoxyphenyl)acrylic acid]
[1]; 4 h after oral administration
  Internal necrosis within the tumors (HE staining): necrosis began to appear within the tumor tissues
[1]; 24 h after oral administration
  Internal necrosis within the tumors (HE staining): massive necrosis
[2]; 4 h after oral administration
  Damage to the blood vessels of tumors (PCNA immunohistochemistry): only some vascular endothelial cells proliferated in the tumor tissues
[2]; 24 h after oral administration
  Damage to the blood vessels of tumors (PCNA immunohistochemistry): massive blood flow blockade and necrosis of tumor tissues
[3]; 40 mg/kg iv × 10qod
  Animal weight (g) End: 20.2/25.4 g
  Metastasis inhibitory rate %: 24.11%
  Number of lung tumor colonies χ ± SD: 40.1 ± 9.0
[3]; 60 mg/kg iv × 10qod
  Animal weight (g) End: 20.1/25.7 g
  Metastasis inhibitory rate %: 29.03%
  Number of lung tumor colonies χ ± SD: 37.5 ± 11.7
[3]; 80 mg/kg iv × 10qod
  Animal weight (g) End: 19.9/25.7 g
  Metastasis inhibitory rate %: 35.84%
  Number of lung tumor colonies χ ± SD: 33.9 ± 10.8
[3]; 120 mg/kg iv × 10qod
  Animal weight (g) End: 20.2/25.6 g
  Metastasis inhibitory rate %: 34.14%
  Number of lung tumor colonies χ ± SD: 34.8 ± 13.4
[3]; 40-120 mg/kg iv × 10qod
  Inhibition of metastasis of B16 mouse melanoma, in words: inhibit the metastasis of B16 mouse melanoma in a dose-dependent manner
[4]
  RTV (d 21): 6.21 ± 1.88
  Terminal weight: 22.9 ± 1.2 g
  Tumor inhibitory rate %: 54.07%

## COc1cc(/C(=C\c2cc(O)c(OC)c(F)c2)C(=O)O)cc(OC)c1OC [Compound 8, (E)-3-(5-fluoro-3-hydroxy-4-methoxyphenyl)-2-(3,4,5-trimethoxyphenyl)acrylic acid]
[5]
  RTV (d 21): 4.85 ± 1.37
  Tumor inhibitory rate %: 62.32%

## COc1cc(/C(=C\c2cc(O)c(OC)c(O)c2)C(=O)O)cc(OC)c1OC [Compound 11, (E)-3-(3,5-dihydroxy-4-methoxyphenyl)-2-(3,4,5-trimethoxyphenyl)acrylic acid]
[6]
  RTV (d 18): 7.62 ± 2.28
  Terminal weight: 23.1 ± 0.9 g
  Tumor inhibitory rate %: 48.76%
